Test results reported in US11504431B2, “Formulations for the suprachoroidal space of an eye and methods” (Emory University, priority 2016, dated 2022).

How the values were obtained:
[1] = test system: SCS of rabbit eyes ex vivo; assay: Ex vivo SCS microneedle injection, flat mount of 2D circumferential spread; set-up: species or system New Zealand White rabbit; conditions: in HBSS with 0.2 μm red-fluorescent particles, 25-150 μL, 3 minutes post-injection, mean±SEM
Procedure: Extraocular tissues were carefully removed from the rabbit ocular globe. To simulate a physiological intraocular pressure (IOP) of 10-12 mmHg, a water column was raised to ˜14 cm and connected to the eye via a 25-gauge needle penetrated through the optic nerve. A microneedle (750 μm in length, 33-gauge; Clearside Biomedical, Alpharetta, Ga.) attached to a 250 μL glass chromatography syringe (National Scientific, Rockwood, Tenn.) was used to make injections.
Depending on the experimental condition, each injection consisted of 25 to 150 μL of 0.5% (w/v) red-fluorescent particles (0.2 μm diameter; Excitation: 580 nm; Emission: 605 nm) and 0.025% (w/v) fluorescein suspended in Hank's Balanced Salt Solution (HBSS; Gibco, Life Technologies). After each injection, the needle was held in place for 1 minute to minimize reflux. The eye was then frozen via submersion in 100% ethanol chilled over dry ice 3 minutes post-injection depending on experimental condition.
After SCS injection and freezing, eyes were prepared to assess the 2D spread of particles and fluorescein. […]
A digital SLR camera (Canon 60D, Canon, Melville, N.Y.) with a 100 mm lens (Canon) was used to acquire brightfield and fluorescence images. […] The area of green and red fluorescence that was above threshold was calculated for each eye using ImageJ (National Institutes of Health, Bethesda, Md.). […]

rabbit SCS in vivo [2] = assay: In vivo SCS injection, RetCam fluorescence fundus imaging of area coverage and co-localization; set-up: species or system New Zealand White rabbit
Text: Also investigated was the role of formulation and time on particle distribution in the SCS. The distribution of red-fluorescent particles suspended with green fluorescently-tagged formulation excipients in HBSS after injection into the SCS of live rabbits was imaged using red and green fluorescence simultaneously. Fluorescence was imaged using RetCam imaging, which was preferred to other non-contact fundus imaging methods, since it enabled visualization of the posterior pole as well as the far periphery (i.e., the injection site). The percentage of the SCS area in the composite images that had red/green fluorescence values at least 0.1% of the starting concentration was then calculated, and this calculation was used as a proxy of true coverage; and determined the incidence of co-localization of the red and green fluorescence greater than chance. […]
At predetermined time points, the animals were imaged with a modified RetCam II system (Clarity Medical Systems, Pleasanton, Calif.). […] The built-in fluorescein attachment was used to capture green fluorescence. For the red fluorescence, green light was generated by placing a 575±50 nm bandpass filter (Edmunds Optics) in line with the fiber optic line. A red-emission filter (610±10 nm, Omega Optical, Brattleboro, Vt.) was placed over the camera to capture red fluorescence. […]

rabbit SCS in vivo [3] = assay: Clearance of fluorescein from the SCS by fundus microscopy, effect of liquid formulation; set-up: species or system New Zealand White rabbit
Procedure: After injection of a formulation into the SCS of an anesthetized rabbit, U/S B-scan was used to determine SCS thickness at multiple locations over time, from which the rate of SCS collapse was calculated, as shown at FIG. 9. In companion experiments, the approximate clearance rate of injected fluorescent material from the SCS was found by taking fluorescence fundus images in the rabbit eye in vivo over time until fluorescence was no longer visible.
Also investigated was the effect of liquid formulation viscosity on the timescale of clearance of fluorescein from the SCS. Using fundus microscopy, the time it took for there to be no visual evidence of fluorescein in the SCS was identified. […] This was likely due to the long-lived presence of viscous CMC gel in the SCS (as evidenced by the SCS remaining open for many days), which can slow diffusion of fluorescein out of the SCS.

SCS of live rabbits [4] = assay: Collection of fluorescein by different clearance routes after SCS injection; type: in vivo, New Zealand White rabbit; conditions: one hour post-injection
Procedure: To assess contributions of different routes of clearance, fluorescein from multiple collection sites was collected after SCS injection in vivo. The fluorescein collected from these collection sites was determined over time. The amount of fluorescein leaving through the injection site was found by subtracting site [i] from site [ii] (i.e., difference in fluorescein collected from sclera anterior to the equator without and with injection site plugged). And the amount of fluorescein leaving through blood was found by subtracting site [iv] from site [iii] (i.e., difference in fluorescein collected from sclera posterior to the equator with and without the vortex vein transected). Though the physiological data are inherently noisy, they should nevertheless enable an order of magnitude characterization of the underlying processes (which can be compared to a theoretical model of transport below). The amount of fluorescein collected over time is depicted at FIG. 17.
For this terminal experiment, the rabbit (N=4 eyes per group) was anesthetized with a subcutaneous injection of ketamine/xylazine before microneedle injection; additional injections were given every 30 minutes to maintain anesthesia. Subcutaneous injection of 60 mL saline was also given on the rump to counteract fluid loss. The amount of fluorescein exiting the eye was determined by collecting samples over time from [i] sclera anterior to the equator; [ii] anterior sclera with injection site plugged; [iii] sclera posterior to the equator; and [iv] posterior sclera with vortex vein transected.
Prior to microneedle injection, the supranasal conjunctiva was dissected off the sclera. […] In [i] anterior sclera and [iii] posterior sclera conditions, samples were collected for 1 hour by swabbing the space with a 1 cm×1 cm paper tissue (Kimwipe, Kimberley-Clark, Irving, Tex.). Care was taken to swab only anterior or posterior to the equator, depending on the condition. The tissue was then placed in 1 mL HBSS until analysis.
To determine the amount of fluorescein leaving [ii] the anterior sclera with injection site plugged, a similar experiment was performed. Immediately post-injection, the injection site was plugged by sealing the microneedle into sclera with cyanoacrylate glue (Loctite 4013, Düsseldorf, Germany). Other methods were the same as above.
Heparin (5 mL of 10,000 IU/mL; Hospira, Lake Forest, Ill.) was given intravenously prior to the start of the experiment to prevent coagulation. […] A transfer pipette was used to collect blood exiting the vortex vein for 1 hour. The volume of collected blood was recorded, and HBSS was added to reach a final volume of 2 mL per sample for analysis.
Immediately after the last time point, all animals were euthanized by injection of pentobarbital through the marginal ear vein. Eyes were enucleated to determine the amount of fluorescein remaining (i) within the tissue (including SCS), and (ii) in aqueous humor, vitreous humor, and lens. The Kimwipe paper tissue and ocular tissue samples were placed in HBSS at 4° C. for 2 days to allow fluorescein to diffuse out and equilibrate with the HBSS. The amount of fluorescein in all samples was measured using a multi-plate reader (Excitation: 494 nm, Emission: 521 nm, Synergy H4, BioTek, Winooski, Vt.). In a separate experiment involving incubation of Kimwipes in a known amount of fluorescein, we found no evidence of loss in extracting fluorescein from the Kimwipe, and no leaching of fluorescent species out of the Kimwipe.

SCS of live rabbits [5] = conditions: New Zealand White, rabbit, in vivo, 3 min
SCS of live rabbits [6] = assay: SCS clearance kinetics by fundus imaging
[7] = value assumed or taken from literature; cited from earlier work

ratio of area covered by fluorescein versus particles [1]	peak area coverage of the fluorescent species (of visible SCS area) (rabbit SCS in vivo [2]; 50 μL SCS injection in HBSS) [%]	total clearance of the fluorescently-tagged formulation excipient from the SCS (rabbit SCS in vivo [2]; HBSS = fluorescein in HBSS) [days]	total clearance of fluorescein from the SCS (rabbit SCS in vivo [3]; injected in 5% CMC solution) [days]	total clearance of fluorescein from the SCS (rabbit SCS in vivo [3]; injected in HBSS) [days]	fluorescein exited via perivascular drainage around the vortex vein (SCS of live rabbits [4]) [%]	fluorescein exited via the injection site (SCS of live rabbits [4]) [%]	fluorescein found in blood (SCS of live rabbits [4]) [%]	fluorescein passed transsclerally to the subconjunctival space (anterior and posterior combined) (SCS of live rabbits [4]) [%]	fluorescein still within tissue (sclera, choroid, SCS, etc.), of total injected (SCS of live rabbits [4]) [%]	fluorescein unaccounted for (SCS of live rabbits [4])	area of the visible SCS occupied (SCS of live rabbits [5]) [%]	clearance time constant (τclearance) (SCS of live rabbits [6]; exponential decay fit of fundus fluorescence) [h]	total clearance time from SCS (SCS of live rabbits [6]; fluorescence no longer visible) [h]	SMILES	diffusivity [7]
2.05±0.24	66	≤ 2	2.7 ± 0.7	0.33 ± 0.05	2.5±0.3	1.3±4	6.3±4	15±0.3	46±18	About 28%	56±6	4.3 ± 0.4	≤ 24	O=C1OC2(c3ccc(O)cc3Oc3cc(O)ccc32)c2ccccc21 [fluorescein]	
														C=C(CC)C(=O)c1ccc(OCC(=O)O)c(Cl)c1Cl [ethacrynic acid]	5×10^−6 cm^2/s
